Laboratory results from patent US12410160B2 (Gilead Sciences, Inc., priority 2021, dated 2025).
Like-named read-outs stand apart in the source and are kept apart here.

Tests used:
HepG2 cells = experiment: F1P Cell-Based Assay (EC50), 13C6-fructose-1-phosphate in HepG2 cells (cell culture medium or 50% human plasma); settings: Homo sapiens
human KHK-C = human KHK-C (Homo sapiens (Human), UniProt P50053); experiment: KHK Biochemical Assay (IC50), ADP-Glo, KHK-C; settings: average of at least two separate assays
Summary of the method: (§1)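 Luminescent ADP-Glo read-out of ADP made by His-tagged KHK (BL21 (DE3) expression, Ni-NTA). Enzyme and compound sat together 30 min before ATP/fructose addition, then reacted 4 h at RT in Hepes pH 7.4 buffer with KCl, MgCl2, Triton-X. Quench 1 h, detection 1 h.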

[1] = molecular target: KHK-C expressed in NRK-52E cells (Homo sapiens (Human), UniProt P50053); experiment: KHK-C Cell-based Assay (EC50), NRK CTG, fructose-mediated ATP-depletion
human KHK-A = human KHK-A (Homo sapiens (Human), UniProt P50053); experiment: KHK Biochemical Assay (IC50), ADP-Glo, KHK-A; settings: average of at least two separate assays
Summary of the method: as §1

[2] = HepG2, HepG2 cells, 50% human plasma, read-out: F1P 50% HP EC50
[3] = HepG2, read-out: F1P 10% FBS EC50, HepG2 cells, cell culture medium (10% FBS)

human KHK-C, sequence (P50053 whole entry): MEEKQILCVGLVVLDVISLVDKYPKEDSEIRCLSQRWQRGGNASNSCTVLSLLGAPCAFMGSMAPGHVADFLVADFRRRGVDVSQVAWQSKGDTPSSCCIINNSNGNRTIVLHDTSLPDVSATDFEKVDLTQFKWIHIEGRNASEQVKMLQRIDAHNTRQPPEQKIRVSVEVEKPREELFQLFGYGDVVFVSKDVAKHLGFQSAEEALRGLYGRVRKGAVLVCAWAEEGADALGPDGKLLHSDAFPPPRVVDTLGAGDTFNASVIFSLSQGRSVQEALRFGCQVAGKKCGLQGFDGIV
KHK-C expressed in NRK-52E cells, sequence (P50053 whole entry): as above
human KHK-A, sequence (P50053 other isoform, or with tags, fused parts or gaps): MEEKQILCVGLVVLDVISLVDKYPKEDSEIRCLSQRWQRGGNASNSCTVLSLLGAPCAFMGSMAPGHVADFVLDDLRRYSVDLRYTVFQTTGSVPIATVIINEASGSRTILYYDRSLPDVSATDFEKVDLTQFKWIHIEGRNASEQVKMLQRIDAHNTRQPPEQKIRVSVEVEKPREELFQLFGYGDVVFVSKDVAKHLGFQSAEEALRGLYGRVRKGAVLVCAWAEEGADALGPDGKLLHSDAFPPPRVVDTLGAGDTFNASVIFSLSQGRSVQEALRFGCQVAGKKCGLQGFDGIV

An EC50 (HepG2 cells; [2]) of 23.7 nM, an EC50 (HepG2 cells; [3]) of 11.5 nM and an IC50 (human KHK-C) of 4.2 nM were found for `Cc1ccc(-c2nc(N3C[C@@H](O)[C@@H]3C)nc3c2CCC3(F)F)cc1S(C)(=N)=O` (stereo partly drawn) [Example 718, (5-(7,7-difluoro-2-((2S,3R)-3-hydroxy-2-methylazetidin-1-yl)-6,7-dihydro-5H-cyclopenta[d]pyrimidin-4-yl)-2-methylphenyl)(imino)(methyl)-λ^6-sulfanone] in this work. It also gave an EC50 [1] of 17.6 nM and an IC50 (human KHK-A) of 5.1 nM.

An EC50 (HepG2 cells; [2]) of 1.4 nM, an EC50 (HepG2 cells; [3]) of 1.1 nM and an IC50 (human KHK-C) of 1.7 nM were found for `C[C@H]1[C@H](O)CN1c1nc(-c2ccc3c(c2)OCCNC3)c2c(n1)C(F)(F)CC2` [Example 760, (2S,3R)-1-[7,7-difluoro-4-(2,3,4,5-tetrahydro-1,4-benzoxazepin-8-yl)-5,6-dihydrocyclopenta[d]pyrimidin-2-yl]-2-methyl-azetidin-3-ol] in this work. The EC50 [1] was 1.4 nM and the IC50 (human KHK-A) was 6 nM.

An EC50 (HepG2 cells; [2]) of 93.5 nM, an EC50 (HepG2 cells; [3]) of 120 nM and an IC50 (human KHK-C; ADP-Glo) of 51.9 nM were found for `C[C@H]1[C@H](O)CN1c1nc(-c2ccc(C#N)c(S(C)(=N)=O)c2)c2c(n1)C(F)(F)CC2` (stereo partly shown) [Example 798] in this work. For the same molecule, the EC50 [1] was > 500 nM and the IC50 (human KHK-A; ADP-Glo) was 70.1 nM.

An EC50 (HepG2 cells; [2]) of 10.4 nM, an EC50 (HepG2 cells; [3]) of 2.9 nM and an IC50 (human KHK-C; ADP-Glo) of 0.2 nM were found for `C[C@H]1[C@H](O)CN1c1nc(-c2ccc3c(c2)OCC32NC(=O)N(C)C2=O)c2c(n1)C(F)(F)CC2` (stereo partly drawn) [Example 819, 6-[7,7-difluoro-2-[(2S,3R)-3-hydroxy-2-methyl-azetidin-1-yl]-5,6-dihydrocyclopenta[d]pyrimidin-4-yl]-3′-methyl-spiro[2H-benzofuran-3,5′-imidazolidine]-2′,4′-dione] in this work. For the same molecule, the EC50 [1] was 2 nM and the IC50 (human KHK-A; ADP-Glo) was 14.6 nM.

An EC50 (HepG2 cells; [2]) of 12.7 nM, an EC50 (HepG2 cells; [3]) of 6.4 nM and an IC50 (human KHK-C; ADP-Glo) of 9.5 nM were found for `COc1ccc(-c2nc(N3C[C@@](C)(O)[C@@H]3C)nc3c2CCC3(F)F)cc1[S@@](C)(=N)=O` [Example 828, (S)-(5-(7,7-difluoro-2-((2S,3R)-3-hydroxy-2,3-dimethylazetidin-1-yl)-6,7-dihydro-5H-cyclopenta[d]pyrimidin-4-yl)-2-methoxyphenyl)(imino)(methyl)-16-sulfanone] in this work. The EC50 [1] was 43.1 nM and the IC50 (human KHK-A; ADP-Glo) was 2 nM.
